What was measured:
[1] = molecular target: Serine/threonine-protein kinase 38 (Homo sapiens) (UniProt Q15208); settings: Compound concentration 1000.0 nM
[2] = molecular target: Homeodomain-interacting protein kinase 3 (Homo sapiens) (UniProt Q9H422); settings: Compound concentration 1000.0 nM
[3] = molecular target: Receptor tyrosine-protein kinase erbB-3 (Homo sapiens) (UniProt P21860); settings: Compound concentration 1000.0 nM
[4] = molecular target: Activin receptor type-2A (Homo sapiens) (UniProt P27037); settings: Compound concentration 1000.0 nM
[5] = molecular target: Serine/threonine-protein kinase MARK1 (Homo sapiens) (UniProt Q9P0L2); settings: Compound concentration 1000.0 nM
[6] = molecular target: Serine/threonine-protein kinase 17A (Homo sapiens) (UniProt Q9UEE5); settings: Compound concentration 1000.0 nM
[7] = molecular target: Hepatocyte growth factor receptor (Homo sapiens) (UniProt P08581); settings: Compound concentration 1000.0 nM
[8] = molecular target: Histamine H2 receptor (Homo sapiens) (UniProt P25021); settings: Compound concentration 10.0 uM
[9] = molecular target: Calcium/calmodulin-dependent protein kinase type 1D (Homo sapiens) (UniProt Q8IU85); settings: Compound concentration 1000.0 nM
[10] = molecular target: 1-phosphatidylinositol 3-phosphate 5-kinase (Homo sapiens) (UniProt Q9Y2I7); settings: Compound concentration 1000.0 nM
[11] = molecular target: Mitogen-activated protein kinase kinase kinase 11 (Homo sapiens) (UniProt Q16584); settings: Compound concentration 1000.0 nM
[12] = molecular target: Membrane-associated tyrosine- and threonine-specific cdc2-inhibitory kinase (Homo sapiens) (UniProt Q99640); settings: Compound concentration 1000.0 nM
[13] = molecular target: Death-associated protein kinase 1 (Homo sapiens) (UniProt P53355); settings: Compound concentration 1000.0 nM
[14] = system: Fibroblast growth factor receptor 3 (Homo sapiens), P22607 [G697C]; settings: Compound concentration 1000.0 nM
[15] = molecular target: Alpha-2C adrenergic receptor (Homo sapiens) (UniProt P18825); settings: Compound concentration 10.0 uM
[16] = molecular target: Calcium/calmodulin-dependent protein kinase type II subunit beta (Homo sapiens) (UniProt Q13554); settings: Compound concentration 1000.0 nM
[17] = molecular target: Activin receptor type-1-like (Homo sapiens) (UniProt P37023); settings: Compound concentration 1000.0 nM
[18] = system: Tyrosine-protein kinase ABL1 (Homo sapiens), P00519 [F317I]; settings: Compound concentration 1000.0 nM
[19] = molecular target: Myosin-IIIa (Homo sapiens) (UniProt Q8NEV4); settings: Compound concentration 1000.0 nM
[20] = molecular target: Serine/threonine-protein kinase WNK3 (Homo sapiens) (UniProt Q9BYP7); settings: Compound concentration 1000.0 nM
[21] = molecular target: Tyrosine-protein kinase JAK1 (Homo sapiens) (UniProt P23458); settings: Compound concentration 1000.0 nM
[22] = molecular target: Ephrin type-B receptor 2 (Homo sapiens) (UniProt P29323); settings: Compound concentration 1000.0 nM
[23] = system: Phosphatidylinositol 4,5-bisphosphate 3-kinase catalytic subunit alpha isoform (Homo sapiens), P42336 [Q546K]; settings: Compound concentration 1000.0 nM
[24] = molecular target: Ephrin type-B receptor 6 (Homo sapiens) (UniProt O15197); settings: Compound concentration 1000.0 nM
[25] = molecular target: Interleukin-1 receptor-associated kinase 1 (Homo sapiens) (UniProt P51617); settings: Compound concentration 1000.0 nM
[26] = molecular target: Wee1-like protein kinase (Homo sapiens) (UniProt P30291); settings: Compound concentration 1000.0 nM
[27] = molecular target: Activin receptor type-1B (Homo sapiens) (UniProt P36896); settings: Compound concentration 1000.0 nM
[28] = molecular target: TRAF2 and NCK-interacting protein kinase (Homo sapiens) (UniProt Q9UKE5); settings: Compound concentration 1000.0 nM
[29] = molecular target: Serine/threonine-protein kinase MRCK gamma (Homo sapiens) (UniProt Q6DT37); settings: Compound concentration 1000.0 nM
[30] = molecular target: Atypical kinase COQ8B, mitochondrial (Homo sapiens) (UniProt Q96D53); settings: Compound concentration 1000.0 nM
[31] = molecular target: Interferon-induced, double-stranded RNA-activated protein kinase (Homo sapiens) (UniProt P19525); settings: Compound concentration 1000.0 nM
[32] = molecular target: Bone morphogenetic protein receptor type-2 (Homo sapiens) (UniProt Q13873); settings: Compound concentration 1000.0 nM
[33] = molecular target: Ribosomal protein S6 kinase beta-1 (Homo sapiens) (UniProt P23443); settings: Compound concentration 1000.0 nM
[34] = molecular target: Peripheral plasma membrane protein CASK (Homo sapiens) (UniProt O14936); settings: Compound concentration 1000.0 nM
[35] = molecular target: Casein kinase I isoform gamma-3 (Homo sapiens) (UniProt Q9Y6M4); settings: Compound concentration 1000.0 nM
[36] = molecular target: Ribosomal protein S6 kinase alpha-2 (Homo sapiens) (UniProt Q15349); settings: Compound concentration 1000.0 nM
[37] = molecular target: 5-hydroxytryptamine receptor 2B (Homo sapiens) (UniProt P41595); settings: Compound concentration 10.0 uM
[38] = system: Tyrosine-protein kinase ABL1 (Homo sapiens), P00519 [F317L]; settings: Compound concentration 1000.0 nM
[39] = molecular target: TGF-beta receptor type-1 (Homo sapiens) (UniProt P36897); settings: Compound concentration 1000.0 nM
[40] = molecular target: Receptor-interacting serine/threonine-protein kinase 1 (Homo sapiens) (UniProt Q13546); settings: Compound concentration 1000.0 nM
[41] = molecular target: Mitogen-activated protein kinase 4 (Homo sapiens) (UniProt P31152); settings: Compound concentration 1000.0 nM
[42] = molecular target: Serine/threonine-protein kinase OSR1 (Homo sapiens) (UniProt O95747); settings: Compound concentration 1000.0 nM
[43] = molecular target: Epithelial discoidin domain-containing receptor 1 (Homo sapiens) (UniProt Q08345); settings: Compound concentration 1000.0 nM
[44] = molecular target: Ephrin type-B receptor 4 (Homo sapiens) (UniProt P54760); settings: Compound concentration 1000.0 nM
[45] = molecular target: Ribosomal protein S6 kinase alpha-5 (Homo sapiens) (UniProt O75582); settings: Compound concentration 1000.0 nM

Sequence of Serine/threonine-protein kinase WNK3 (Homo sapiens) (Q9BYP7 whole entry): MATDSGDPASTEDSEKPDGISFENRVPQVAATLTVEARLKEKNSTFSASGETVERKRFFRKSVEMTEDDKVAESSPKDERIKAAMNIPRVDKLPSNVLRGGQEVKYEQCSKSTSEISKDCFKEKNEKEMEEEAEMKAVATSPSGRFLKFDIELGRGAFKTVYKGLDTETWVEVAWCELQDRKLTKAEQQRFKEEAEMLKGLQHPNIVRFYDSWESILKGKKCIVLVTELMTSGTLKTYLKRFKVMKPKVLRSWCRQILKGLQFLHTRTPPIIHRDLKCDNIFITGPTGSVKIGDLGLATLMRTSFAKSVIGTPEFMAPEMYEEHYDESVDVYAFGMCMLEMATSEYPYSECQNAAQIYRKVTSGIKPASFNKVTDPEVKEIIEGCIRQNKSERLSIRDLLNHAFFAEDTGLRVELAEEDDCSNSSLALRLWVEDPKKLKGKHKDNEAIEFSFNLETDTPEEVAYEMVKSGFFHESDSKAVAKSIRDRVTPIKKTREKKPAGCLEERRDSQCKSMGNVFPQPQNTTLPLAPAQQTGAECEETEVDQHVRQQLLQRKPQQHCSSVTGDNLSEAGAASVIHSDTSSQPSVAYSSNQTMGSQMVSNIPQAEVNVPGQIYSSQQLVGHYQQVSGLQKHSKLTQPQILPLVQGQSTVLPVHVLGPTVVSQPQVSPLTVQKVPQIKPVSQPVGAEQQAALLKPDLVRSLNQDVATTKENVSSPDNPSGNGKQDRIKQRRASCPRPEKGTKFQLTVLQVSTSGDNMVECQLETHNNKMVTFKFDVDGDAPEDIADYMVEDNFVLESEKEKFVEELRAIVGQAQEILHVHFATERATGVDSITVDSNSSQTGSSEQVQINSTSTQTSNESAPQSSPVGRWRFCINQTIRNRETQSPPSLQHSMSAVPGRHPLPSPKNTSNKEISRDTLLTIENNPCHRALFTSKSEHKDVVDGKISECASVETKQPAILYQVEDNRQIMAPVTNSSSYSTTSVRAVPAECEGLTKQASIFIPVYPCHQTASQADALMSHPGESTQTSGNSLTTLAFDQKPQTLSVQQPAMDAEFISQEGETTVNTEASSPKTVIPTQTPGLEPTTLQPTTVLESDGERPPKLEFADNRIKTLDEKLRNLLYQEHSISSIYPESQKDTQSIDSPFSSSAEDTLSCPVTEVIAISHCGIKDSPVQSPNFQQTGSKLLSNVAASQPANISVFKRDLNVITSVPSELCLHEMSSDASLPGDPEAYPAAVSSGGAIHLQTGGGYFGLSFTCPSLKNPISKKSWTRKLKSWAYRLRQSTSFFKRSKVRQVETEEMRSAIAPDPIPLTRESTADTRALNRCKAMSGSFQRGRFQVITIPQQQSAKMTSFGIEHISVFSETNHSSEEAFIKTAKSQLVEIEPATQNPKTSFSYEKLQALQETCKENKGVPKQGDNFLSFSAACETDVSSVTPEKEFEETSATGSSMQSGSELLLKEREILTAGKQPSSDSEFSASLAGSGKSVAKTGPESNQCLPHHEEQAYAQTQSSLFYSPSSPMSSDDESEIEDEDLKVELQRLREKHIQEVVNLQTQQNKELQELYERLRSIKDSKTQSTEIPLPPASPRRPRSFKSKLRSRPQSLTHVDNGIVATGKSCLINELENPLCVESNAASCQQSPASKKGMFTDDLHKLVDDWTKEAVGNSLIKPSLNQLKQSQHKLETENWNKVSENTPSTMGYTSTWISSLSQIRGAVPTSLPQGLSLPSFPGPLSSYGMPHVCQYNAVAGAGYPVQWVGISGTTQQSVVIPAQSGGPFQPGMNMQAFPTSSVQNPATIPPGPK
Sequence of Serine/threonine-protein kinase MARK1 (Homo sapiens) (Q9P0L2 whole entry, looked up): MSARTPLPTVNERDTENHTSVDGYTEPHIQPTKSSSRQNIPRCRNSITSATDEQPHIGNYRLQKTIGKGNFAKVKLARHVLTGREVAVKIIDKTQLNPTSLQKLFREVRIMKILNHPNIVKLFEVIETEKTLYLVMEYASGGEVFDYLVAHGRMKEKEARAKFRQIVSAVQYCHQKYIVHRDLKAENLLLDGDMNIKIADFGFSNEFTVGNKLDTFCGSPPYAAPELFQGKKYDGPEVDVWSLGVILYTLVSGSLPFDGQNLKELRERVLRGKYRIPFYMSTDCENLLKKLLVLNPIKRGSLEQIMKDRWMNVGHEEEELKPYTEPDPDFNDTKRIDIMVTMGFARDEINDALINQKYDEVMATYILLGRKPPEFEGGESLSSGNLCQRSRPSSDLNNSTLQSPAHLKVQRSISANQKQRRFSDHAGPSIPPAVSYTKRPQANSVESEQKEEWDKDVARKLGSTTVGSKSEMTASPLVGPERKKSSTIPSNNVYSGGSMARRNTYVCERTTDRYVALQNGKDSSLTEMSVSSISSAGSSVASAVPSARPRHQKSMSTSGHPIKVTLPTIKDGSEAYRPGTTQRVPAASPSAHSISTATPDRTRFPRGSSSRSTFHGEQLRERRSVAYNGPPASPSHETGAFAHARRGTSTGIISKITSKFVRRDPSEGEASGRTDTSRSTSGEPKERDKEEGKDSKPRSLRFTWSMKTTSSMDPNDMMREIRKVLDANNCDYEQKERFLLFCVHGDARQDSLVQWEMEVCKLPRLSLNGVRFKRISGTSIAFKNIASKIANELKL
Sequence of Calcium/calmodulin-dependent protein kinase type 1D (Homo sapiens) (Q8IU85 whole entry, looked up): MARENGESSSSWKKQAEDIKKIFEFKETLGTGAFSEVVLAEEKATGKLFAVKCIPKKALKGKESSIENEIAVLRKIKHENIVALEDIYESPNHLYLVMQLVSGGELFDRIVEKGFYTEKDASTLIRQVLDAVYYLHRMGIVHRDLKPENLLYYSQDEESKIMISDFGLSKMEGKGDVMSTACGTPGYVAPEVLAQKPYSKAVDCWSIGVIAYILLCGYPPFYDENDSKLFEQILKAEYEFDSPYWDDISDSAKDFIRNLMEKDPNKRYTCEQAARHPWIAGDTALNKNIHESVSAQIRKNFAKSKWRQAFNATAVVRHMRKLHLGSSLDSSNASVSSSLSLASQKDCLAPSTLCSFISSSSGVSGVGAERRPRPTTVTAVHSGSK
Sequence of 1-phosphatidylinositol 3-phosphate 5-kinase (Homo sapiens) (Q9Y2I7 whole entry): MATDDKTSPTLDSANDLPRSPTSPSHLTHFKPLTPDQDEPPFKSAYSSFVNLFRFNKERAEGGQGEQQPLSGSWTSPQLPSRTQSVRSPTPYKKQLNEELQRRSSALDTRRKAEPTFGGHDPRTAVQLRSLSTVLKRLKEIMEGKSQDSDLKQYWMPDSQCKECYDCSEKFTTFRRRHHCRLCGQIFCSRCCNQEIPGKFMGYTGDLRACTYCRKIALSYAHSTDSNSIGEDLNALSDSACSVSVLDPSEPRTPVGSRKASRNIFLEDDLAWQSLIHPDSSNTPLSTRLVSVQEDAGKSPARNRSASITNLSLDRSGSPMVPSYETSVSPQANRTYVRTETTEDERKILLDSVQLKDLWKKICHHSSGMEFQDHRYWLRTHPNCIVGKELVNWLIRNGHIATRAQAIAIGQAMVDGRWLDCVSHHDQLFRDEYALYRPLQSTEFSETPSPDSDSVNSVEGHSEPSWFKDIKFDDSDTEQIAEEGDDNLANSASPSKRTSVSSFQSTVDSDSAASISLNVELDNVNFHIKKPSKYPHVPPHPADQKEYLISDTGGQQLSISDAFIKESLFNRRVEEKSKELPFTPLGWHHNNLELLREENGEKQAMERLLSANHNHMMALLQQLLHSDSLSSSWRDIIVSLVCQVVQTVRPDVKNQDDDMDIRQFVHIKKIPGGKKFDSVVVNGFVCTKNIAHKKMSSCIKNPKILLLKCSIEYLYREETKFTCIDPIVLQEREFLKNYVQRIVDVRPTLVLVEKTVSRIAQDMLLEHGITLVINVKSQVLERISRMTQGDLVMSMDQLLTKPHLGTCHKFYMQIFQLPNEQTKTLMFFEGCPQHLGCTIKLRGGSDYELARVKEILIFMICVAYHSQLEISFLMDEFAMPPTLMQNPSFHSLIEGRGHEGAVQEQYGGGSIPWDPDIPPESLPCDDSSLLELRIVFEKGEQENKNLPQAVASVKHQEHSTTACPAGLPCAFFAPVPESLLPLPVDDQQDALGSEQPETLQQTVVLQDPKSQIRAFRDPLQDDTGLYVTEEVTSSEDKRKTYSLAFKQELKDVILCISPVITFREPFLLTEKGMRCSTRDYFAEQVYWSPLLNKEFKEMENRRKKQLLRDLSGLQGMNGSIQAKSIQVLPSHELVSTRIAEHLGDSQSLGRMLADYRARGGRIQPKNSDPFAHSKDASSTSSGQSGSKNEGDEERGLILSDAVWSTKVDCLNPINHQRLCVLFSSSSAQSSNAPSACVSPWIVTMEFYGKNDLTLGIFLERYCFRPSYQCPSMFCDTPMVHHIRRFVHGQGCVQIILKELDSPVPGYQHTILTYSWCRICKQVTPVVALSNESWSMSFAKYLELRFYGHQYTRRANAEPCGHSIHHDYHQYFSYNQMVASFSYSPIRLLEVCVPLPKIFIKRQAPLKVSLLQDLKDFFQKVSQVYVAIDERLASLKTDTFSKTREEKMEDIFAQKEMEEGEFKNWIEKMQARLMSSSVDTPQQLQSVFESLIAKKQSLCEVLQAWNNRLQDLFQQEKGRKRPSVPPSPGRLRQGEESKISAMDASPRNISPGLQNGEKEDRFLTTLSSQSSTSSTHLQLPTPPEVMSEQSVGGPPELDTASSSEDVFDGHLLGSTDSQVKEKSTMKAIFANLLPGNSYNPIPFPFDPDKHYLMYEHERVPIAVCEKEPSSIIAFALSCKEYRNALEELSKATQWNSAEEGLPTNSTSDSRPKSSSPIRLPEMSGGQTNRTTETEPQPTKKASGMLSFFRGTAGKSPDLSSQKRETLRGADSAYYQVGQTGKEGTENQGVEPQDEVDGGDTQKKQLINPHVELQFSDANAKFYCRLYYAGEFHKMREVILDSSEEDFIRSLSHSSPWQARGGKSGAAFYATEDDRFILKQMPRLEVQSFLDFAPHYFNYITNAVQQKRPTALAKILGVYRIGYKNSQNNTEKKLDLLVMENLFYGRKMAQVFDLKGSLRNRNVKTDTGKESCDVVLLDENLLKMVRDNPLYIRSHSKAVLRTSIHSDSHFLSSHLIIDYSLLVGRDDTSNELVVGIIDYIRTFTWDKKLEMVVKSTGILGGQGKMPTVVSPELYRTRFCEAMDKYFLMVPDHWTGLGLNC

C[C@@]1(Cc2ccc(C#N)cc2)C(=O)N(c2cc(Cl)cc(Cl)c2)c2ncc(C(=O)NC3(c4nc(C5CCC5)no4)CC3)n21 [BI 9446]
residual activity [1]: 100% | residual activity [2]: 100% | residual activity [3]: 96% | residual activity [4]: 92% | residual activity [5]: 100% | residual activity [6]: 91% | residual activity [7]: 100% | inhibition [8]: 11% | residual activity [9]: 100% | residual activity [10]: 100% | residual activity [11]: 100% | residual activity [12]: 75% | residual activity [13]: 100% | residual activity [14]: 100% | inhibition [15]: 9.3% | residual activity [16]: 90% | residual activity [17]: 100% | residual activity [18]: 96% | residual activity [19]: 100% | residual activity [20]: 100% | residual activity [21]: 100% | residual activity [22]: 94% | residual activity [23]: 88% | residual activity [24]: 100% | residual activity [25]: 100% | residual activity [26]: 100% | residual activity [27]: 100% | residual activity [28]: 100% | residual activity [29]: 100% | residual activity [30]: 100% | residual activity [31]: 56% | residual activity [32]: 100% | residual activity [33]: 100% | residual activity [34]: 100% | residual activity [35]: 100% | residual activity [36]: 99% | inhibition [37]: 15.5% | residual activity [38]: 86% | residual activity [39]: 100% | residual activity [40]: 100% | residual activity [41]: 100% | residual activity [42]: 84% | residual activity [43]: 81% | residual activity [44]: 100% | residual activity [45]: 100%

C[C@H](NC(=O)c1cnc2n1[C@](C)(Cc1ccc(C#N)cc1)C(=O)N2c1cc(Cl)c(F)c(Cl)c1)C(=O)NC1(c2ccccn2)CC1 [BI 1950]
residual activity [1]: 96% | residual activity [2]: 100% | residual activity [3]: 100% | residual activity [4]: 92% | residual activity [5]: 100% | residual activity [6]: 100% | residual activity [7]: 100% | inhibition [8]: 11.8% | residual activity [9]: 99% | residual activity [10]: 100% | residual activity [11]: 100% | residual activity [12]: 79% | residual activity [13]: 100% | residual activity [14]: 100% | inhibition [15]: 0.16% | residual activity [16]: 100% | residual activity [17]: 100% | residual activity [18]: 78% | residual activity [19]: 100% | residual activity [20]: 78% | residual activity [21]: 100% | residual activity [22]: 100% | residual activity [23]: 97% | residual activity [24]: 100% | residual activity [25]: 100% | residual activity [26]: 100% | residual activity [27]: 99% | residual activity [28]: 100% | residual activity [29]: 100% | residual activity [30]: 100% | residual activity [31]: 34% | residual activity [32]: 100% | residual activity [33]: 100% | residual activity [34]: 100% | residual activity [35]: 100% | residual activity [36]: 94% | inhibition [37]: 17.2% | residual activity [38]: 100% | residual activity [39]: 82% | residual activity [40]: 100% | residual activity [41]: 100% | residual activity [42]: 94% | residual activity [43]: 100% | residual activity [44]: 100% | residual activity [45]: 96%
